# Results taken from patent publication US20070009437A1, “Intracellular trapping of radionuclides by enzyme-mediated reduction” (priority 2003, published 2007).
# Assays:
# [1] = test system: DsbA-HydA + DsbC-HydB (pACYC-DsbA-HydA + pETDuet/DsbC-HydB) in E. coli BL21(DE3) Star; test: Tc99m O4- reduction assay, bacteria with both periplasmic Dsb fusion vectors; assay type: cell-based, Desulfovibrio desulfuricans; details: for Counts Per Minute, cell pellet, DSB FUSIONS: 15 mCi, aerobic
# Source text: (§1) Bacterial expression vectors were designed following standard molecular biology techniques. D. desulfuricans hydrogenase genes, Hyd A and Hyd B were PCR amplified using primers incorporated with unique restriction sites at the ends. The genes were inserted into pET-Duet1 (Novagen) vector under T7 RNA polymerase driven promoter through sequential restriction digestion and ligation. Periplasmic signal sequences were extracted from vectors pET-39b and pET-40b (Novagen) and ligated in-frame with start codon deficient Hydrogenase genes. Mammalian expression vectors were designed with mitochondrial signal sequences from pCMV/myc/mito, fused in frame by PCR amplification and ligation with both HydA and HydB genes. Additionally, the myc epitope was added in-frame at the C-terminus to facilitate subcellular localization and immunoprecipations.
# (§2) E. coli BL21(DE3) Star (Invitrogen) was transformed with various constructs and grown on the appropriate selective media agars. In case of periplasmic fusion hydrogenases, dual co-transformation was accomplished using antibiotic selection markers, ampicillin and chloramphenicol. Transformed cells were grown at 37° C. in a standard laboratory shaker under aerobic conditions to an optical density at 600 nm (O.D.600) of 0.6 and then induced with 1 mM IPTG under a standard T7 promoter induction protocol. One ml aliquots of cells were collected at 0, 1, 2, and 3 hour time points following induction and mRNA was extracted using a bacterial mRNA extraction mini kit (Qiagen). 100 ng of the mRNA samples was DNAse treated (Invitrogen) according to the manufacturer's protocol. RNA quality was then analyzed using an Agilent 2100 Bioanalyzer, prokaryotic total RNA nano-chip. RT-PCR reactions were performed using the internal specific primers for HydA, Forward: 5′-[…] (SEQ ID NO:8); Reverse: 5′-[…] (SEQ ID NO:9) and Hyd B, Forward: 5′-[…] (SEQ ID NO:10), Reverse 5′-[…] (SEQ ID NO:11) and one step RT-PCR kit (Qiagen).
# (§3) Tc99m O4—reduction assays were performed as follows: Bacterial cultures were grown to an O.D.600 of 0.6 in a simple rotary shaker under aerobic conditions. HydA and HydB genes were induced with 1 mM IPTG in the presence of 15 mCi of 99mTc Pertechnetate and ten ml aliquots of bacterial cultures were collected at 0, 1, 2, and 3 hr time points. The cells were spun down at 3500 rpm for 15 min, washed twice with 5 ml phosphate buffered saline (PBS) and the supernatant was collected and saved for later analysis. Control bacteria transformed with Duet vectors only were treated as controls. Total counts in the total cell pellet, 100 μl of media supernatant, and 1 ml of each wash, were then assayed using a gamma counter. Ten microliters of 99mTc pertechnetate was assayed to provide internal control between experiments.
# (§4) In FIG. 12, the amount of radioactivity recorded in counts per minute was divided by the total number of counts expected per 10 ml of culture. The experimental values were determined by subtracting the control bacterial normalized CPM from the normalized CPM from the hydrogenase vector(s) transformed bacteria. The values obtained were therefore normalized counts per minute for the different cell lines.
# (§5) However, this increase was negligible when compared to cells containing both HydA and HydB in separate (individual) Dsb fusion vector constructs.
# [2] = test system: E. coli BL21(DE3) Star transformed with pET-Duet + pACYCDuet (control); test: Tc99m O4- reduction assay, control bacteria with Duet vectors only; assay type: cell-based, Escherichia coli; details: 15 mCi, aerobic
# Experimental: as §2, §3, §4
# [3] = test system: T. vaginalis (ATCC No. 30001); test: Trapping of Tc99m pertechnetate in Trichomonas vaginalis (intracellular radioactivity, gamma counter); assay type: cell-based; details: 2 μCi, 37° C., 2×10^6 cells per tube, washed pellet
# Experimental: T. vaginalis (ATCC No. 30001) was cultured in ATCC LYI entamoeba medium (ATCC No. PRA-2154) at 37° C. in test tubes to a titer of 2×10^6 cells per tube. Three test tubes were included in each group. T. vaginalis cells were incubated at 37° C. for a period of time after inoculation of 2 μci of Technetium 99m pertechnetate in each test tube. At end of incubation, the cells were harvested by centrifugation at […], for 10 minutes. The cellular pellet was washed three times with PBS to remove extra-cellular radioactivity. Intracellular radioactivity of the cells was counted with a gamma counter.
# [4] = test system: DsbA-HydA fusion (pACYC-DsbA-HydA alone) in E. coli BL21(DE3) Star; test: Tc99m O4- reduction assay, bacteria with pACYC-DsbA-HydA alone; assay type: cell-based, Desulfovibrio desulfuricans; details: 15 mCi, aerobic
# Source text: as §1, §2
# Tc99m O4—reduction assays were performed as follows: Bacterial cultures were grown to an O.D.600 of 0.6 in a simple rotary shaker under aerobic conditions. HydA and HydB genes were induced with 1 mM IPTG in the presence of 15 mCi of 99mTc Pertechnetate and ten ml aliquots of bacterial cultures were collected at 0, 1, 2, and 3 hr time points. The cells were spun down at 3500 rpm for 15 min, washed twice with 5 ml phosphate buffered saline (PBS) and the supernatant was collected and saved for later analysis. […]
# In FIG. 12, the amount of radioactivity recorded in counts per minute was divided by the total number of counts expected per 10 ml of culture. The experimental values were determined by subtracting the control bacterial normalized CPM from the normalized CPM from the hydrogenase vector(s) transformed bacteria. […]
# [5] = test system: DsbC-HydB fusion (pETDuet/DsbC-HydB alone) in E. coli BL21(DE3) Star; test: Tc99m O4- reduction assay, bacteria with pETDuet/DsbC-HydB alone; assay type: cell-based, Desulfovibrio desulfuricans; details: for Counts Per Minute, cell pellet, FB: 15 mCi, aerobic
# Source text: as §1, §2, §3, §4, §5
# [6] = test system: D. desulfuricans hydrogenase HydA/HydB (pETDuet/HydA/HydB) in E. coli BL21(DE3) Star; test: Tc99m O4- reduction assay, bacteria with pETDuet/HydA/HydB; assay type: cell-based, Desulfovibrio desulfuricans; details: for Counts Per Minute, cell pellet, HYDA/B: 15 mCi, aerobic
# Source text: as §1, §2, §3, §4
smiles,measurement,setting,value
[O]=[99Tc](=[O])(=[O])[O-] [Technetium 99m pertechnetate],"Counts Per Minute, cell pellet, DSB FUSIONS",[1]; 0 hr after 1 mM IPTG induction,4185 cpm
same,"Counts Per Minute, cell pellet, DSB FUSIONS",[1]; 1 hr after 1 mM IPTG induction,38129 cpm
same,"Counts Per Minute, cell pellet, DSB FUSIONS",[1]; 2 hr after 1 mM IPTG induction,80021 cpm
same,"Counts Per Minute, cell pellet, DSB FUSIONS",[1]; 3 hr after 1 mM IPTG induction,56611 cpm
same,99mTc association with the bacteria,[1]; DsbA and DsbC ligated in fusion to Hyd A and Hyd B,increased 99mTc association with the bacteria
same,"Counts Per Minute, cell pellet, D + P (control)",[2]; 0 hr after 1 mM IPTG induction,2777 cpm
same,"Counts Per Minute, cell pellet, D + P (control)",[2]; 1 hr after 1 mM IPTG induction,6939 cpm
same,"Counts Per Minute, cell pellet, D + P (control)",[2]; 2 hr after 1 mM IPTG induction,10045 cpm
same,"Counts Per Minute, cell pellet, D + P (control)",[2]; 3 hr after 1 mM IPTG induction,11944 cpm
same,RADIOACTIVITY (dpm) in T. vaginalis,[3]; incubation 30 minutes,24904 dpm
same,RADIOACTIVITY (dpm) in T. vaginalis,[3]; incubation 45 minutes,45127 dpm
same,RADIOACTIVITY (dpm) in T. vaginalis,[3]; incubation 12 hours,1915843 dpm
same,"Counts Per Minute, cell pellet, FA",[4]; 0 hr after 1 mM IPTG induction,7074 cpm
same,"Counts Per Minute, cell pellet, FA",[4]; 1 hr after 1 mM IPTG induction,8503 cpm
same,"Counts Per Minute, cell pellet, FA",[4]; 2 hr after 1 mM IPTG induction,15323 cpm
same,"Counts Per Minute, cell pellet, FA",[4]; 3 hr after 1 mM IPTG induction,23935 cpm
same,"Counts Per Minute, cell pellet, FB",[5]; 0 hr after 1 mM IPTG induction,4643 cpm
same,"Counts Per Minute, cell pellet, FB",[5]; 1 hr after 1 mM IPTG induction,40064 cpm
same,"Counts Per Minute, cell pellet, FB",[5]; 2 hr after 1 mM IPTG induction,55201 cpm
same,"Counts Per Minute, cell pellet, FB",[5]; 3 hr after 1 mM IPTG induction,77462 cpm
same,entrapment of radionuclide by cells,[5]; Hyd B-Dsb fusion alone vs both fusion hydrogenase products together,higher than that of both fusion hydrogenase products together
same,"Counts Per Minute, cell pellet, HYDA/B",[6]; 0 hr after 1 mM IPTG induction,2074 cpm
same,"Counts Per Minute, cell pellet, HYDA/B",[6]; 1 hr after 1 mM IPTG induction,5543 cpm
same,"Counts Per Minute, cell pellet, HYDA/B",[6]; 2 hr after 1 mM IPTG induction,8031 cpm
same,"Counts Per Minute, cell pellet, HYDA/B",[6]; 3 hr after 1 mM IPTG induction,12339 cpm
same,trapping in vitro as compared to control cells,[6]; bacteria overexpressing HydA and HydB genes,significantly higher trapping
same,radioactivity within cells relative to control cells,[6]; pETDuet1/HydA/HydB vector vs pET-Duet+PAcYCDuet vector,noticeable increase in radioactivity
